{"source": "patent US20120010206A1", "about": "“IMIDAZOLOPYRIDINE COMPOUNDS USEFUL FOR THE TREATMENT OF DEGENERATIVE AND INFLAMMATORY DISEASES” (priority 2006, published 2012)", "test_system": "MMP1 expression by complex trigger activated SFs", "experiment": "MMP assay: MMP1 expression (ELISA) by SFs activated with the 'complex trigger'", "assay_type": "cell-based", "conditions": "Homo sapiens; SFs activated with supernatant of TNF-α-treated THP-1 cells (complex trigger), 48 hrs, FIG. 3; read-out: IC50 of reduction of MMP1 expression by SFs", "procedure": "A 384-well format ELISA for measurement of MMP1 is developed. Various primary antibodies are tested, as well as various ELISA protocols. The following protocol is developed and validated to measure MMP1 levels in SF supernatant in 384 well plates: white Lumitrac 600 384 well plates (Greiner) are coated with 2 μg/mL anti-MMP1 antibody MAB1346 (Chemicon). The antibody is diluted in buffer 40 (1.21 g Tris base (Sigma), 0.58 g NaCl (Calbiochem) and 5 mL 10% NaN3 (Sigma) in 1 L milliQ water and adjusted to pH 8.5). After overnight incubation at 4° C., plates are washed with PBS (80 g NaCl, 2 g KCl (Sigma), 11.5 g Na2HPO4.7H2O and 2 g KH2PO4 in 10 L milliQ; pH 7.4) and blocked with 100 μL/well Casein buffer (2% Casein (VWR International) in PBS). Next day, casein buffer is removed from ELISA plates and replaced by 50 μL/well EC buffer (4 g casein, 2.13 g Na2HPO4 (Sigma), 2 g bovine albumin (Sigma), 0.69 g NaH2PO4.H2O (Sigma), 0.5 g CHAPS (Roche), 23.3 g NaCl, 4 mL 0.5 M EDTA pH 8 (Invitrogen), 5 mL 10% NaN3 in 1 L milliQ and adjusted to pH 7.0). 0.25 mM DTT (Sigma) is added to the thawed sample plates. After removal of the EC buffer, 20 μL of sample is transferred to the ELISA plates. […] Readout is performed on the Luminoscan Ascent Luminometer (Labsystems) with an integration time of 200 msec or with an Envision reader (Perkin Elmer). […]"}
{"smiles": "C[C@@H]1C[C@H]2[C@@H]3CCC4=CC(=O)C=C[C@]4(C)[C@@]3(F)[C@@H](O)C[C@]2(C)[C@@]1(O)C(=O)CO", "note": "[dexamethasone]", "values": [{"measurement": "IC50", "result": "~1", "unit": "nM"}]}
